Reference: patent US12145944B2, “Imidazopyrimidines as EED inhibitors and the use thereof” (THE REGENTS OF THE UNIVERSITY OF MICHIGAN, priority 2019, dated 2024)
Read-outs that look alike come from different tables or passages of the source.

Assays:
EED (1-441)-His protein = target: T1, EED (1-441)-His protein (Homo sapiens, UniProt O75530); assay: EED-H3K27Me3 peptide competition binding assay by AlphaScreen; details: EED Alpha screen binding assay, read-out: Alpha screen
T1 construct: 20 nM EED (1-441)-His protein
Description: “N/A” stands for “not assessed”.
EED-H3K27Me3 peptide competition binding assay by AlphaScreen (α-screen)
2.5 μl of solutions containing 20 nM biotin-H3K27Me3 (19-33) peptide in the buffer (25 mM HEPES, pH 8, 0.02% Tween-20, 0.5% BSA) were added to the wells and then incubated with compound for 30 min. […] Then 10 μl of the detection beads mix was added to the plate and incubated in the dark at RT for 1 h. The final concentration of donor and acceptor beads was 10 μg/ml for each. […] The data were then fit to a dose response equation to get the IC50 values.

[1] = tested on: KARPAS422 human B cell lymphoma cell; assay: Cell proliferation, KARPAS422, 7 day treatment (WST-8); format: cell-based; details: 7 day treatment, read-out: Karpas Cell line
How it was run: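 Read-out was WST-8 absorbance at 450 nm after 1-4 h with reagent, taken after 7-day compound treatment (serial dilutions, 37 °C, 5% CO2) of 2 000-3 000 KARPAS422 cells per well. IC50 fitted by nonlinear regression on DMSO-normalized values.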

Pfeiffer cell line = assay: Anti-proliferative activity, Pfeiffer cell line, 7 day treatment; format: cell-based; details: 7 day treatment, read-out: Pfeiffer Cell line
How it was run: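 Cells seeded at 2 000-3 000 per well were treated with serially diluted compounds for 7 days at 37° C, 5% CO2. Growth was measured by WST-8 assay read at 450 nm after 1-4 h reagent incubation. Readings were normalized to DMSO-treated cells and IC50 values derived by nonlinear regression.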

[2] = Homo sapiens, KARPAS-422, 168 h, anti-proliferative IC50 class, Karpas 422 cell line
[3] = Homo sapiens, 168 h, anti-proliferative IC50 class, Pfeiffer cell line

T1 sequence (O75530 whole entry): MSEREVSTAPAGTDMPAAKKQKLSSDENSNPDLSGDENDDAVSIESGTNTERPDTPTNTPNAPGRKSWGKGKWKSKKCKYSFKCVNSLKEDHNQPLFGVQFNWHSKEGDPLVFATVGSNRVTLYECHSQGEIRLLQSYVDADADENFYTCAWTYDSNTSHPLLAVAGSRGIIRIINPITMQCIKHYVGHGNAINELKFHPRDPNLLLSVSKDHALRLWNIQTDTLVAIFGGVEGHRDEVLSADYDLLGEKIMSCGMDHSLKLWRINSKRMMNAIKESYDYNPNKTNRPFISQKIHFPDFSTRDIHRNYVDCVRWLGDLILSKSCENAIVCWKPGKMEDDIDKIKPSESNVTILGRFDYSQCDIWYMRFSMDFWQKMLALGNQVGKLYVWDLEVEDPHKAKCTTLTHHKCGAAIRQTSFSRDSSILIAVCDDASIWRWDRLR

Row | Structure (SMILES) | IC50 (EED (1-441)-His protein; IC50 class) [nM] | IC50 [1, 2] [nM] | IC50 (Pfeiffer cell line; [3]) [nM] | IC50 (EED (1-441)-His protein) [nM] | IC50 ([1]; anti-proliferative IC50, Karpas 422 cell line) [nM] | IC50 (Pfeiffer cell line; anti-proliferative IC50, Pfeiffer cell line) [nM]
1 | Cc1ccc2c(n1)CN(CC(F)(F)F)C(=O)c1ncn3c(NCc4c(F)ccc5c4CCO5)ncc-2c13 [E 3, 12-(((5-fluoro-2,3-dihydrobenzofuran-4-yl)methyl)amino)-7-methyl-4-(2,2,2-trifluoroethyl)-4,5-dihydro-3H-2,4,6,11,12a-pentaazabenzo[4,5]cycloocta[1,2,3-cd]inden-3-one] | < 10 | < 10 | < 10 |  |  | 
2 | Cc1ccc(-c2cc(C#N)c(NCc3c(F)ccc4c3CCO4)n3cnc(S(C)(=O)=O)c23)c(C)n1 [E 25, 8-(2,6-dimethylpyridin-3-yl)-5-(((5-fluoro-2,3-dihydrobenzofuran-4-yl)methyl)amino)-1-(methylsulfonyl)imidazo[1,5-a]pyridine-6-carbonitrile] | < 10 | 10 to 100 | 10 to 100 |  |  | 
3 | O=C1c2ncn3c(NCc4c(F)ccc5c4CCO5)ncc(c23)-c2ccc(C3COC3)nc2CN1CC(F)(F)F [E 51, 12-(((5-fluoro-2,3-dihydrobenzofuran-4-yl)methyl)amino)-7-(oxetan-3-yl)-4-(2,2,2-trifluoroethyl)-4,5-dihydro-3H-2,4,6,11,12a-pentaazabenzo[4,5]cycloocta[1,2,3-cd]inden-3-one] | < 10 | < 10 | < 10 |  |  | 
4 | [2H]C([2H])(Nc1ncc2c3c(ncn13)C(=O)N(CC(F)(F)F)Cc1nc(C)ccc1-2)c1c(F)ccc2c1CCO2 [E 20, 12-(((5-fluoro-2,3-dihydrobenzofuran-4-yl)methyl-d2)amino)-7-methyl-4-(2,2,2-trifluoroethyl)-4,5-dihydro-3H-2,4,6,11,12a-pentaazabenzo[4,5]cycloocta[1,2,3-cd]inden-3-one] | < 10 | < 10 | < 10 |  |  | 
5 | CC(C)N1Cc2cc(C(F)(F)F)ncc2-c2cnc(NCc3c(F)ccc4c3CCO4)n3cnc(c23)C1=O [E 40, 12-(((5-fluoro-2,3-dihydrobenzofuran-4-yl)methyl)amino)-4-isopropyl-7-(trifluoromethyl)-4,5-dihydro-3H-2,4,8,11,12a-pentaazabenzo[4,5]cycloocta[1,2,3-cd]inden-3-one] | < 10 | < 10 | < 10 |  |  | 
6 | CS(=O)(=O)c1ncn2c(NCc3c(F)ccc4c3CCO4)c(C#N)cc(-c3ccc(C4CC4)nc3)c12 [E 26, 8-(6-cyclopropylpyridin-3-yl)-5-(((5-fluoro-2,3-dihydrobenzofuran-4-yl)methyl)amino)-1-(methylsulfonyl)imidazo[1,5-a]pyridine-6-carbonitrile] | 10 to 100 | 10 to 100 | < 10 |  |  | 
7 | Cc1ncccc1-c1cc(C#N)c(NCc2c(F)ccc3c2CCO3)n2cnc(S(C)(=O)=O)c12 [E 27, 5-(((5-fluoro-2,3-dihydrobenzofuran-4-yl)methyl)amino)-8-(2-methylpyridin-3-yl)-1-(methylsulfonyl)imidazo[1,5-a]pyridine-6-carbonitrile] | 10 to 100 | 10 to 100 | < 10 |  |  | 
8 | O=C1c2ncn3c(NCc4c(F)ccc5c4CCO5)ncc(c23)-c2sccc2CN1C1CC1 [compound 87, 4-cyclopropyl-11-(((5-fluoro-2,3-dihydrobenzofuran-4-yl)methyl)amino)-4,5-dihydro-3H-8-thia-2,4,10,11a-tetraazacyclopenta[4,5]cycloocta[1,2,3-cd]inden-3-one] |  |  |  | 11.2 | 8.67 | 0.018
9 | [2H]C1Oc2ccc(F)c(C([2H])([2H])Nc3ncc4c5c(ncn35)C(=O)N(CC(F)(F)F)Cc3nc(C)ccc3-4)c2C1[2H] (stereo not drawn) [E 22, 12-(((5-fluoro-2,3-dihydrobenzofuran-4-yl-2,3-d2)methyl-d2)amino)-7-methyl-4-(2,2,2-trifluoroethyl)-4,5-dihydro-3H-2,4,6,11,12a-pentaazabenzo[4,5]cycloocta[1,2,3-cd]inden-3-one] | < 10 | < 10 | < 10 |  |  | 
10 | Cc1ccc2c(n1)CN(CC(C)(F)F)C(=O)c1ncn3c(NCc4c(F)ccc5c4CCO5)ncc-2c13 [E 7, 4-(2,2-difluoropropyl)-12-(((5-fluoro-2,3-dihydrobenzofuran-4-yl)methyl)amino)-7-methyl-4,5-dihydro-3H-2,4,6,11,12a-pentaazabenzo[4,5]cycloocta[1,2,3-cd]inden-3-one] | < 10 | < 10 | < 10 |  |  | 
11 | [2H]C([2H])([2H])c1ccc2c(n1)CN(CC(F)(F)F)C(=O)c1ncn3c(NC([2H])([2H])c4c(F)ccc5c4CCO5)ncc-2c13 [E 21, 12-(((5-fluoro-2,3-dihydrobenzofuran-4-yl)methyl-d2)amino)-7-(methyl-d3)-4-(2,2,2-trifluoroethyl)-4,5-dihydro-3H-2,4,6,11,12a-pentaazabenzo[4,5]cycloocta[1,2,3-cd]inden-3-one] | < 10 | < 10 | < 10 |  |  | 
